By IC50 is commonly meant the concentration that gives 50% inhibition.

Common to all, as to assay type: biochemical
One assay has as its target Pim-2 (Homo sapiens (Human), UniProt Q9P1W9). Nature of the assay: Pim-2 kinase assay. As to conditions: 1 mM ATP; read-out: PIM2 IC50. In short, it runs like this: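 TR-FRET assay with 1 nM enzyme, 0.05 μM fluorescein-CREBtide and 1 mM ATP in Tris pH 7.5 buffer with MgCl2, DTT, BSA and Tween-20, run 2 h at 25° C. Stopped with EDTA and Tb-labelled anti-CREB pSer133 antibody, then read after 30 min at room temperature.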

For another assay, the target named is Pim-3 (Homo sapiens (Human), UniProt Q86V86). Put plainly: Pim-3 kinase assay. As to conditions: 1 mM ATP; read-out: PIM3 IC50. In outline:
(§1)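 Biotin-BAD peptide (0.05 μM) phosphorylated with 1 mM ATP by 2.5 pM Pim-1 or 1.25 pM Pim-3 in Tris pH 7.5/MgCl2/DTT buffer, 1 h at 25° C. EDTA stop; phospho-BAD (Ser112) antibody with streptavidin donor and Protein-A acceptor beads, 1 h dark at room temperature before AlphaScreen-type bead read.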

The target in a further assay is Pim-1 (Homo sapiens (Human), UniProt P11309). Put plainly: Pim-1 kinase assay. The settings on record: 1 mM ATP; read-out: PIM1 IC50. In short, it runs like this:
as §1

Pim-1, sequence (P11309 whole entry): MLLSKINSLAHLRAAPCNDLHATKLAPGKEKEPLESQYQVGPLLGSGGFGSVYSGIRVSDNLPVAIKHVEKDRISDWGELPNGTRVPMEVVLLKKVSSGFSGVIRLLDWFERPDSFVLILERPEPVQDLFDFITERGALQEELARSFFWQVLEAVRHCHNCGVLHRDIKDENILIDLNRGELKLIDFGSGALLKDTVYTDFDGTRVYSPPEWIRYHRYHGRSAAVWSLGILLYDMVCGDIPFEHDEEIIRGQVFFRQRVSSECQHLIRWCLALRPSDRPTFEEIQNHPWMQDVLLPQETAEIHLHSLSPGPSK
Pim-2, sequence (Q9P1W9 whole entry): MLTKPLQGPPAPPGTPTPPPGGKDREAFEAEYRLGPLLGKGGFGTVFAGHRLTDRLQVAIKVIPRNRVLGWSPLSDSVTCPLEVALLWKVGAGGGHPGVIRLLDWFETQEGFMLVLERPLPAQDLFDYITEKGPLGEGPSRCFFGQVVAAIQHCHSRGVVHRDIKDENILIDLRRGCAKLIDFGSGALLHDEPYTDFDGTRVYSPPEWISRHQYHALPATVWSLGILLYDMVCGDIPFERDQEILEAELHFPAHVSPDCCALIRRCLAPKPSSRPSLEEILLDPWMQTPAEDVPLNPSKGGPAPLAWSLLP

For `C[C@@H]1C[C@H](N)C[C@H](c2ccncc2NC(=O)c2ccc(F)c3cc(N4CC(F)C4)cnc23)C1` [Example 9, N-{4-[(1R,3S,5S)-3-Amino-5-methylcyclohexyl]pyridin-3-yl}-5-fluoro-3-(3-fluoroazetidin-1-yl)quinoline-8-carboxamide], the figures for the IC50 on Pim-2, on Pim-3 and on Pim-1 were 100 to 1000 nM, not above 10 nM and not above 10 nM, respectively.
Consider `C[C@@H]1C[C@H](N)C[C@H](c2ccncc2NC(=O)c2ccc(F)c3cc(N4CC[C@@H]4C)cnc23)C1` [Example 166, N-(4-((1R,3S,5S)-3-Amino-5-methylcyclohexyl)pyridin-3-yl)-5-fluoro-3-((S)-2-methylazetidin-1-yl)quinoline-8-carboxamide], for which the IC50 at Pim-2 is not above 100 nM; at Pim-3, not above 10 nM; on Pim-1 it was not above 10 nM.
On to `C[C@@H]1C[C@H](N)C[C@H](c2ccncc2NC(=O)c2cccc3cc(N4CCOC[C@H]4C)cnc23)C1` [Example 67, N-(4-((1R,3S,5S)-3-Amino-5-methylcyclohexyl)pyridin-3-yl)-3-((R)-3-methylmorpholino)quinoline-8-carboxamide], for which the IC50 is not above 100 nM on Pim-2, not above 10 nM on Pim-3 and not above 10 nM at Pim-1.
As for `C[C@@H]1C[C@H](N)C[C@H](c2ccncc2NC(=O)c2ccc(F)c3cc(N4CCc5cnn(C)c5C4)cnc23)C1` [Example 127, N-(4-((1R,3S,5S)-3-Amino-5-methylcyclohexyl)pyridin-3-yl)-5-fluoro-3-(1-methyl-4,5-dihydro-1H-pyrazolo[3,4-c]pyridin-6(7H)-yl)quinoline-8-carboxamide], the IC50 at Pim-2 is not above 100 nM; at Pim-3, not above 10 nM; on Pim-1 it was not above 10 nM.
As for `Cc1ccc(N(C)c2cnc3c(C(=O)Nc4cnccc4[C@@H]4C[C@H](C)C[C@H](N)C4)ccc(F)c3c2)c(C)n1` [Example 141, N-(4-((1R,3S,5S)-3-Amino-5-methylcyclohexyl)pyridin-3-yl)-3-((2,6-dimethylpyridin-3-yl)(methyl)amino)-5-fluoroquinoline-8-carboxamide], the IC50 on Pim-2 is not above 100 nM; at Pim-3 it was not above 10 nM; on Pim-1 it was not above 10 nM.
For `C[C@@H]1C[C@H](N)C[C@H](c2ccncc2NC(=O)c2ccc(F)c3cc(N4CCCOCC4)cnc23)C1` [Example 102, N-(4-((1R,3S,5S)-3-Amino-5-methylcyclohexyl)pyridin-3-yl)-5-fluoro-3-(1,4-oxazepan-4-yl)quinoline-8-carboxamide], the values for the IC50 at Pim-2, at Pim-3 and at Pim-1 were not above 100 nM, not above 10 nM and not above 10 nM, respectively.
On to `C[C@@H]1C[C@H](N)C[C@H](c2ccncc2NC(=O)c2ccc(F)c3cc(N4CC[C@H](O)[C@@H](F)C4)cnc23)C1` [Example 108, N-(4-((1R,3S,5S)-3-Amino-5-methylcyclohexyl)pyridin-3-yl)-5-fluoro-3-((3S,4S)-3-fluoro-4-hydroxypiperidin-1-yl)quinoline-8-carboxamide], for which the values for the half-inhibitory concentration (IC50) at Pim-2, on Pim-3 and on Pim-1 were not above 100 nM, not above 10 nM and not above 10 nM, respectively.

The values are drawn from patent US9920032B2, “Heterocyclic compounds useful as pim kinase inhibitors” (Incyte Corporation, priority 2015, dated 2018).
